Reference: publication PMC6150693 (Journal of the American Chemical Society, 2017)

Biological target: T1, SBD2 (Lactococcus lactis, UniProt Q9CES5)
T1 sequence (Q9CES5 253-484 limits assumed): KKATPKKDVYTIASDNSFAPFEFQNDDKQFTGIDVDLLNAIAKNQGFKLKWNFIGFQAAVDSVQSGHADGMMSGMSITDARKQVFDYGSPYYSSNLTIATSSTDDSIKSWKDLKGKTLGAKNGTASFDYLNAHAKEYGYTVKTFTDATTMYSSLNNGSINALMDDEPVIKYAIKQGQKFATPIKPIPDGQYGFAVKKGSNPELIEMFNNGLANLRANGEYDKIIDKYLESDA
Experiment: single-molecule ClyA nanopore current, relative closed population
Assay type: binding

Kd: 0.83 ± 0.1 µM
Structure (SMILES): NC(=O)CC[C@H](N)C(=O)O [glutamine]
